Earlier results in publication PMC8538057, “Direct Delivery of ANA-TA9, a Peptide Capable of Aβ Hydrolysis, to the Brain by Intranasal Administration” (Pharmaceutics, 2021).

Tests used:
[1] = system: normal and cognitively impaired rats; conditions: i.n. administration; cited from earlier work
Text: (§1) Nasal drug administration has several advantages over oral or i.v. administration, which include noninvasiveness, self-administration, short onset of action, and higher bioavailability due to the avoidance of hepatic first-pass metabolism. Therefore, interest has grown in i.n. drug administration as a route for the application of drugs, particularly peptides, for systemic delivery. In addition to the above advantages, active pharmaceutical ingredients applied to the nasal cavity can undergo not only systemic absorption but, also, direct delivery to the brain [33, 34, 35, 36]. The brain up ...

[2] = system: aged mice; conditions: i.n. administration; cited from earlier work
Text: as §1

[3] = system: Aβ42; conditions: also three Aβ fragment peptides, particularly Aβ11–29; cited from earlier work
Text: Recently, we reported the proteolytic activity of the shorter synthetic peptides JAL-TA9 (YKGSGFRMI) and ANA-TA9 (SKGQAYRMI), derived from the Box A region of the Tob1 and ANA/BTG3 proteins. These peptides cleave Aβ42 and three Aβ fragment peptides, particularly Aβ11–29 originating from the central region, which is considered the core region of Aβ42 aggregation/oligomerization. We gave these peptides the general name Catalytide. Catalytides such as JAL-TA9 and ANA-TA9 are attractive candidate peptide drugs for a novel strategy for preventing and treating AD.

Row | Sequence | effect on memory function [1] | effect on anxiety [2] | cleavage of Aβ42 (proteolytic activity) [3]
1 | NAPVSIPQ | improves memory function | decreases anxiety | –
2 | YKGSGFRMI [JAL-TA9, Catalytide (catalytic peptide) … derived from the Box A region of Tob1 protein, cleaves Aβ42] | – | – | cleave Aβ42
